US7232852B2, “Photopolymerizable compositions that include alicyclic/aromatic dioxiranes and novel dioxiranyl tetraoxaspiro [5.5] undecanes” (Curators of the University of Missouri, priority 2002, dated 2007)

Experiment: Solubility of TOSUs in oxirane coreactant systems
Assay type: physicochemical
Conditions: 25° C.

Row | SMILES | Solubility in oxirane base BOCPE [wt %] | Solubility in oxirane base UVR 6105 | Solubility in oxirane base UVR 6105/PTHF (80/20) [wt %] | Solubility in oxirane base BDDGE/PTHF (80/20) [wt %]
1 | C1CC2OC2CC1CC1COC2(OC1)OCC(CC1CCC3OC3C1)CO2 (stereo not shown) [BOCHM, 3,9-bis[(7-oxabicyclo[4.1.0]hept-3-yl)methyl]-1,5,7,11-tetraoxaspiro[5.5]undecane] | <10 | 30 wt % | 25 | –
2 | C1=CCC(CC2COC3(OC2)OCC(CC2CC=CCC2)CO3)CC1 (stereo not shown) [BCHEM, 3,9-Bis(cyclohex-3-enylmethyl)-1,5,7,11-tetraoxaspiro[5,5]undecane] | – | 15–25 wt % | 25 | –
3 | C1OC2(OCC13CC1OC1C3)OCC1(CO2)CC2OC2C1 (stereo not shown) [DOTSHX, 6,24-dioxatrispiro[bicyclo[3.1.0]hexane-3.5′-1,3-dioxane-2.2′-1,3-dioxane-5″3′″-bicyclo[3.1.0]hexane]] | <5 | – | – | <5
4 | C1CC2(COC3(OC2)OCC2(CCC4OC4C2)CO3)CC2OC12 (stereo not shown) [DOTSHH, 7,26-dioxatrispiro[bicycle[4.1.0]heptane-3,5′-1,3-dioxane-2′2″-1,3-dioxane-5″,4′″-bicyclo[4.1.0]heptane]] | 10 | – | <5 | 5
5 | CC1CC2OC2CC1CC1COC2(OC1)OCC(CC1CC3OC3CC1C)CO2 (stereo not shown) [BMOCHM, 3,9-bis[(4-methyl-7-oxabicyclo[4.1.0]hept-3-yl)methyl]-1,5,7,11-tetraoxaspiro[5,5]undecane] | <10 | 30 wt % | 25 | –
6 | CCC1(CC)COC2(COC3(CCC4OC4C3)OC2)OC1 (stereo not shown) [DEODSH, 5,5-diethyl-19-oxdispiro[1,3-dioxane-2,5′-1,3-dioxane-2′,3″-bicyclo[4.1.0]heptane]] | >10 | – | 40 | –

Experiment: Photoinitiated solution homopolymerization of BMOCHM-TOSU (FTIR, gel point)
Assay type: physicochemical
Conditions: post irradiation, 20 wt % in methylene chloride
Method: The effect of irradiation time on the photoinitated homopolymerization of BMOCHM-TOSU monomer (20 wt % in methylene chloride) was evaluated by gel point determination and by FTIR spectroscopy. Selected IR absorption bands in the reaction mixture characteristic of hydroxyl, carbonyl and oxirane groups were monitored as a function of irradiation time. […] These observations indicate the possibility of homopolymer formation. The mixture gelled 1.5 min post irradiation.

Row | SMILES | gel point (mixture gelled) [min]
7 | CC1CC2OC2CC1CC1COC2(OC1)OCC(CC1CC3OC3CC1C)CO2 (stereo not shown) [BMOCHM, 3,9-bis[(4-methyl-7-oxabicyclo[4.1.0]hept-3-yl)methyl]-1,5,7,11-tetraoxaspiro[5,5]undecane] | 1.5
